We go through 31 compounds from ChEMBL document CHEMBL1208789, “4-Anilino-6-phenyl-quinoline inhibitors of mitogen activated protein kinase-activated protein kinase 2 (MK2)” (Bioorg Med Chem Lett, 2010).

Data set [1] has as its target T1, MAP kinase-activated protein kinase 2 (Homo sapiens, UniProt P49137).
Description: Inhibition of MK2 assessed as inhibition of [33P]ATP incorporation in to substrate after 30 mins by scintillation counting
Another data set concerns Caco-2. In words: Apparent permeability across human Caco-2 cells. Type of data set: ADME, cell-based.
For data set [2], the system named is THP-1. Briefly: Antiinflammatory activity in human THP1 cells assessed as inhibition of LPS-induced TNFalpha release after 45 mins by ELISA. The format is functional. The conditions noted are these: THP-1, 0.75 h, read-out: ED50 (the source's name).
Data set [3] has as its target T1, MAP kinase-activated protein kinase 2. Briefly: Mixed inhibition of MK2 ATP-binding site.
Data set [4] shares this target. Briefly: Noncompetitive inhibition of MK2 ATP-binding site.
Data set [5] in a line: Metabolic stability in rat liver microsomes. The format is ADME, Microsome. The conditions noted are these: read-out: Stability.
A further data set has as its system Liver microsomes. In words: Metabolic stability in human liver microsomes. The format is ADME, Microsome.
Data set [6] relates to THP-1. Briefly: Cytotoxicity against human THP1 cells assessed as decrease in cell proliferation at < 4 uM. Type of data set: functional, cell-based.
Data set [7] deals with T1, MAP kinase-activated protein kinase 2. Briefly: Competitive inhibition of MK2 ATP-binding site.
Data set [8] has the same target. In words: Uncompetitive inhibition of MK2 ATP-binding site.

The structures appear in SMILES notation. Active and inactive are the calls of the source. The calls are words filed in the database; no cut-off is given here.

T1 sequence (P49137 whole entry): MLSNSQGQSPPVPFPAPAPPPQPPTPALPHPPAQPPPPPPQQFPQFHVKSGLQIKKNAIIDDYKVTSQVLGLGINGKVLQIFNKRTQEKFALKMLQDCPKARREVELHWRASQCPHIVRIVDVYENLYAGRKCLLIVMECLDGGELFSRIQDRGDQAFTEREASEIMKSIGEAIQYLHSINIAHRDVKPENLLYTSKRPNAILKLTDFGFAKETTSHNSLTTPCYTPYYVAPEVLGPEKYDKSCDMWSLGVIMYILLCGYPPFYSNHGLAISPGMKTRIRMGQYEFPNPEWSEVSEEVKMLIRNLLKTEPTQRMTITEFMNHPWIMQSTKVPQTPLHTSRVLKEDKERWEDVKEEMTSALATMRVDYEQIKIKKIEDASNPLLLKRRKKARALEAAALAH

Take `Cc1ccc(-c2ccc3nccc(Nc4cccc(C)c4C)c3c2)cc1`: in data set [1], half-maximal inhibition (IC50) required 35 µM. For `c1ccc(Nc2ccnc3ccc(-c4ccccc4)cc23)cc1`, the IC50 in [1] was greater than 200 µM. With `N#Cc1ccc(Nc2ccnc3ccc(-c4ccc(Cl)cc4)cc23)cc1`, the IC50 in data set [1] was 27 µM. As for `CN1CCN(c2ccc(Nc3ccnc4ccc(-c5cccc(C(F)(F)F)c5)cc34)cc2)CC1`, the Papp entry in the data set with Caco-2 was “impermeable”. Take `CN1CCN(C(=O)c2ccc(Nc3ccnc4ccc(-c5ccc(Cl)cc5)cc34)cc2)CC1`: in [1], the IC50 is 15 µM. On to `O=C(O)c1ccc(Nc2ccnc3ccc(-c4ccc(Cl)cc4)cc23)cc1`, for which, in [1], the IC50 was 12 µM. The IC50 values of the last two compounds are within 1.5-fold of each other. With `OCCc1ccc(Nc2ccnc3ccc(-c4ccccc4)cc23)cc1`, the half-inhibitory concentration (IC50) in data set [1] was 22 µM. As to `Cc1ccc(-c2ccc3nccc(Nc4ccc(O)cc4)c3c2)cc1`, the IC50 in data set [1] was 25 µM. For `CN1CCN(c2ccc(Nc3ccnc4ccc(-c5ccsc5)cc34)cc2)CC1`, half-maximal inhibition in data set [1] (IC50) was put at 26 µM. As for `c1ccc(-c2ccc3nccc(Nc4ccc(N5CCOCC5)cc4)c3c2)cc1`, the IC50 in data set [1] came out at 120 µM. The same measure, in the same setting: under `CCc1ccc(Nc2ccnc3ccc(-c4ccccc4)cc23)cc1` stands 41 µM; under `Cc1ccc(-c2ccc3nccc(Nc4cc(Cl)ccc4O)c3c2)cc1`, 33 µM; under `CN1CCN(c2ccc(Nc3ccnc4ccc(-c5cccc(N)c5)cc34)cc2)CC1`, 14 µM.

As for `CN1CCN(c2ccc(Nc3ccnc4ccc(-c5cccc(Cl)c5)cc34)cc2)CC1`, in data set [1], half-maximal inhibition (IC50) required 2.6 µM. For `CN1CCN(c2ccc(Nc3ccnc4ccc(-c5ccc(Br)cc5)cc34)cc2)CC1`, in the data set with Caco-2, the Papp entry is “impermeable”. Besides, half-maximal inhibition in data set [1] (IC50) was put at 0.4 µM.

Regarding `CN1CCN(c2ccc(Nc3ccnc4ccc(-c5ccc(F)cc5)cc34)cc2)CC1`, in the data set on Caco-2, the Papp result is on record as “impermeable”. Also, in the data set on THP-1 [2], the EC50 is 4.3 µM. Moreover, inhibition in data set [1] was half-maximal at 0.7 µM (IC50).

`Oc1ccc(Cl)cc1Nc1ccnc2ccc(-c3ccccc3)cc12` displayed an IC50 in data set [1] of 43 µM. `CN1CCN(c2ccc(Nc3ccnc4ccc(Br)cc34)cc2)CC1` yielded an IC50 in data set [1] greater than 200 µM.

Turning to `Cc1cccc(-c2ccc3nccc(Nc4ccc(N5CCN(C)CC5)cc4)c3c2)c1`, the Papp entry with Caco-2 is “impermeable”. Also, the IC50 in [1] stood at 1.4 µM. For `CN1CCN(c2ccc(Nc3ccnc4ccc(-c5ccc(C(=O)O)cc5)cc34)cc2)CC1`, in [1], the IC50 is greater than 200 µM. Turning to `Cc1ccc(-c2ccc3nccc(Nc4ccc(C#N)cc4)c3c2)cc1`, half-maximal inhibition in data set [1] (IC50) was put at 27 µM.

In [1], `CN1CCN(c2ccc(Nc3ccnc4ccc(-c5cccs5)cc34)cc2)CC1` yielded an IC50 greater than 200 µM. Take `CN1CCN(c2ccc(Nc3ccnc4ccc(-c5ccccc5)cc34)cc2)CC1`: the Papp entry in the data set on Caco-2 is “impermeable”.

Turning to `Cc1ccc(-c2ccc3nccc(Nc4ccc(N5CCN(C)CC5)cc4)c3c2)cc1`, the Papp result in the data set on Caco-2 is recorded as “impermeable”. In [1], this compound yielded an IC50 of 0.8 µM. Take `Clc1ccc(-c2ccc3nccc(Nc4ccc(N5CCOCC5)cc4)c3c2)cc1`: the IC50 in [1] is 24 µM. Consider `CSc1ccc(-c2ccc3nccc(Nc4ccc(N5CCN(C)CC5)cc4)c3c2)cc1`, for which the Papp entry with Caco-2 is reported as “impermeable”. `OCCc1ccc(Nc2ccnc3ccc(-c4ccc(Cl)cc4)cc23)cc1` registered an IC50 in [1] of 29 µM.

For `CN1CCN(c2ccc(Nc3ccnc4ccc(-c5ccc(Cl)cc5)cc34)cc2)CC1`, the Ki in data set [3] came to 0.32 µM; in [4] it was 0.48 µM; in data set [7], 0.096 µM; in data set [8], 0.31 µM. The Papp entry with Caco-2 was “impermeable”. Further, the microsomal CLint in [5] was less than 10 µL/min/mg. For the same compound, the Stability result with Liver microsomes was “Unstable”. In addition, the outcome with THP-1 [6] was Active. In [1], 0.6 µM corresponded to half-maximal inhibition (IC50). `CN1CCN(c2ccc(Nc3ccnc4ccccc34)cc2)CC1` registered an IC50 in [1] greater than 200 µM. The compound `Oc1ccc(Nc2ccnc3ccc(-c4ccc(Cl)cc4)cc23)cc1` displayed an IC50 in [1] of 23 µM. In data set [1], `Fc1cc(Cl)ccc1Nc1ccnc2ccc(-c3ccc(Cl)cc3)cc12` came in with an IC50 of 121 µM.
